The assay is described as follows: Total Oxyradical Scavenging Capacity (TOSC) Assay; synergy by CalcuSyn median-effect analysis. The format is biochemical. Particulars: TOSC antioxidant capacity; pure compounds, astaxanthin alone or combined at the stated ratio. On the procedure:
Cm is determined from the x-intercept of the median-effect plot. The fraction affected by the concentration of the test material is fa and the fraction unaffected by the concentration is fu (fu=1−fa). The exponent m is the parameter signifying the sigmoidicity or shape of the dose-effect curve. It is estimated by the slope of the median-effect plot. […] The goodness of fit for the data to the median-effect equation is represented by the linear correlation coefficient r of the median-effect plot. […] Synergy of test components is quantified using the combination index (CI) parameter. […] The equation determines only the additive effect rather than synergism or antagonism.

For orientation: EC50 means the concentration that produces a half-maximal response.

On to `CC1=C(/C=C/C(C)=C/C=C/C(C)=C/C=C/C=C(C)/C=C/C=C(C)/C=C/C2=C(C)C(=O)[C@@H](O)CC2(C)C)C(C)(C)C[C@H](O)C1=O` [astaxanthin, 3, 3′-dihydroxy-β,β-carotene-4, 4′-dieto-β-carotene], for which the EC50 is 642 µM.
